Here are results for four compounds from patent publication US20210003556A1, “IMPROVING ANTI-PD-1 CANCER THERAPY” (Mayo Foundation for Medical Education and Research, priority 2018, published 2021).

The test system of data set [1] is CX3CR1^+ CD8^+ T cells. The class given is cell-based, human. As to the method: FIG. 7 is a graph plotting CX3CR1^+ CD8^+ and CX3CR1^− CD8^+ T cell survival during treatment with doxorubicin (Dox) in vitro. […] N=4 donors.
(§1) Stimulation and culture of human T cells: Human CD8^+ T cells were purified using a human CD8^+ T cell enrichment kit (Stemcell). CD8^+ T cells were incubated with chemotherapy drugs (paclitaxel, carboplatin, or doxorubicin), either alone or with T cell activators (DYNABEADS®, human T-activator CD3/CD28 beads) for 24-48 hours, followed with staining for CX3CR1 and Granzyme B. ABCB1 inhibitor PGP4008 was purchased from Enzo Life Sciences (Farmingdale, N.Y.).
To determine the effect of chemotherapeutic treatment on survival of CX3CR1^+ and CX3CR1^− CD8^+ T cells, subsets of these cells were isolated, placed in 96 well plates at 2×10^5 cells/well, and incubated with doxorubicin (Dox) at 0.5 μg/ml for 40 hours.

Data set [2] relates to CX3CR1^+ CD8^+ T cells. The data set can be described thus: CTL function (CD107a expression, IFN-γ production) of CD8+ T cells with ABCB1 inhibitor with or without CP. The class given is cell-based, human. To be noted: anti-CD3/CD28 beads 24 hours. As to the method: as §1
Since the pharmacodynamics of doxorubicin may not be able to exactly reflect the efflux of carboplatin and paclitaxel (CP), and these drugs cannot be directly tracked due to lack of fluorescent capability, the impact of the drug transporter inhibitor on the function of T cells in the presence of CP was examined to determine whether T cell function might be dampened due to the reduced ability of T cells to efflux CP. ABCB1 transporter inhibitor (PGP4008) was incubated with resting or activated human primary CD8^+ T cells in vitro in the presence of CP. T cell function was measured by based pm degranulation (CD107a expression) and intracellular IFN-γ production.

Data set [3] has as its system CX3CR1^+ CD8^+ T cells. The data set can be described thus: IL-15 treatment of human PBMC in vitro (proliferation/expansion of CX3CR1+ CD8+ T cells). The class given is cell-based. As to the method: FIG. 8A is a flow cytometry plot showing representative CD122 expression by CX3CR1^+ CD8^+ T cells. FIG. 8B is a graph plotting CD122 expression by CX3CR1^+ and CX3CR1^− CD8^+ T cells in PBMC after incubation with PHA-L for 48 hours. […] FIG. 8C is a graph plotting proliferation of CX3CR1^+ CD8^+ T cells treated in vitro with human IL-15 for 48 hours.
FIG. 9 is a graph plotting % CX3CR1^+ Granzyme CD8^+ T cells among human peripheral blood mononuclear cells (PBMC) cultured with graded concentrations of rh-IL-15 for 24 hours in vitro.
For at least a couple of reasons, IL-15 may improve anti-PD-1 therapy for non-responsive tumors. First, the transcription of CD122 (IL-2 receptor beta) was increased in CD11a^high CD8^+ T cells in responders 25 compared to non-responders (FIG. 1B). […] Further, human PBMC were incubated with human IL-15 (10 ng/ml) or anti-CD3/CD28 beads for 48 hours, and proliferation of CX3CR1^+ CD8^+ T cells was assessed based on % Ki67^+ cells.
To test whether IL-15 directly contributes to the expansion of CX3CR1^+ Granzyme B^+ CD8^+ T cells, human recombinant IL-15 was incubated for 24 hours with PBMC isolated from healthy human donors, followed by flow cytometry analysis of CX3CR1^+ Granzyme B^+ CD8^+ T cells. […] Thus, IL-15 may improve the efficacy of PD-1 ICI therapy by expanding CX3CR1^+ Granzyme B^+ CD8^+ T cells that are capable of rejecting tumors.

For data set [4], the system named is Bim^+ CD8^+ T cells. The data set can be described thus: % Bim+ CD8+ T cells in peripheral blood of metastatic melanoma patients after PD-1 ICI therapy. The class given is in vivo, human. The conditions noted are these: 12 weeks after anti-PD-1 therapy; responders vs non-responders, first cohort. An excerpt: FIGS. 15A to 15D illustrate changes in Bim^+ CD8^+ T cells in response to PD-1 ICI therapy in patients with MM. FIG. 15A is a graph plotting percentages of changes in the frequency (%) of Bim^+ CD8^+ T cells in MM patients with progressive diseases (P, n=7) and responders (R, n=6) at 12-weeks after PD-1 therapy. **P<0.01, error bars, median with interquartile ranges. FIG. 15B is a series of images of metastatic melanoma (white arrows) in one patient with pseudo-progression at 12 weeks after PD-1 therapy. FIG. 15C is a graph plotting % Bim^+ CD8^+ T cells of the patient of FIG. 15B at baseline, 12 weeks, and 16 weeks after PD-1 therapy. FIG. 15D is a graph plotting the % change of Bim^+ CD8^+ T cells in a second cohort of melanoma patients (total 38) at 12 weeks after PD-1 therapy.
Further studies were conducted to examine and compare the frequency of Bim^+ cells among circulating CD11a^high CD8^+ T cells, since this population of T cells is enriched with tumor-reactive T cells (Liu et al., Oncoimmunology, 2013, 2:e23972). […] In addition, Bim levels (MFI) were positively correlated with PD-1 levels among CD11a^high CD8^+ T cells of cancer patients (FIG. 14B, P<0.01; Duraiswamy et al., J Immunol, 2011, 186:4200-4212). […] Therefore, measurement of the frequency of Bim^+ CD8^+ T cells can be used to the degree to which PD-1 signals have been blocked in cancer patients. […]

Data set [5] relates to metastatic melanoma. The data set can be described thus: Salvage chemotherapy added to anti-PD-1 in metastatic melanoma patients who failed PD-1 blockade. The class given is in vivo, human. The conditions noted are these: BRAF wild-type metastatic melanoma; pembrolizumab alone, then carboplatin and paclitaxel added, assessed three weeks after the combination. On the procedure:
FIGS. 2A to 2C show patient responses to CIT with an increase of CX3CR1^+ Granzyme B^+ CD8^+ T cells. […] Given the disease progression while on pembrolizumab, paclitaxel, and carboplatin (white arrows) were initiated at 175 mg/m^2 and an AUC (area under curve) of 5 every 3 weeks for 2 cycles in combination with pembrolizumab. The patient received total of 12 cycles of pembrolizumab at the end of the follow up. FIG. 2B is a pair of flow cytometry plots showing CX3CR1 levels pre- and post-chemo, as indicated. Following the same schedule of treatment as in FIG. 2A, blood samples were collected for flow analysis of CX3CR1^+ Granzyme B^+ among CD11a^highCD8^+ T cells. […]
Patient information: The studies described herein were conducted according to Declaration of Helsinki principles. […] Response to treatment was evaluated according to standard clinical practice guidelines using Response Evaluation Criteria In Solid Tumors (RECIST) criteria. […]
The frequency of CX3CR1^+ Granzyme B^+ CD8^+ tumor-reactive T cells was examined before and after chemotherapy combined with anti-PD-1 therapy in patients with metastatic melanoma. […] The frequency of CX3CR1^+ Granzyme B^+ cells also was measured and compared in other responders and non-responders prior to and after chemotherapy. […]

As to `O=C(Cc1ccccc1)Nc1c2c(nc3ccccc13)N(Cc1ccccc1)CC2` [PGP4008], the “apoptosis of CX3CR1+ CD8+ T cells after addition of ABCB1 inhibitor” value in data set [1] (cultured with Doxorubicin 0.5 μg/ml for 40 hours plus PGP4008) was “increased apoptosis”. In addition, the “function of CX3CR1+ CD8+ T cells (CD107a expression, IFN-γ production)” value is listed as “not in the absence of CP” in data set [2] (in the absence of CP); “significantly inhibited the function” in data set [2] (in the presence of CP (carboplatin and paclitaxel)).
Regarding `COc1cccc2c1C(=O)c1c(O)c3c(c(O)c1C2=O)C[C@@](O)(C(=O)CO)C[C@@H]3O[C@H]1C[C@H](N)[C@H](O)[C@H](C)O1` [doxorubicin], in data set [1] (human, 40 h, 0.5 μg/ml), the “apoptosis (Annexin V) of CD8+ T cells” value was “fewer CX3CR1^+ CD8^+ T cells (efflux cells) than CX3CR1^− CD8^+ T cells (non-efflux cells) underwent apoptosis” and the “percentage of Dox+/annexin V low (live) cells” value was “higher in the CX3CR1^+ subset of CD8^+ T cells than in the CX3CR1^− CD8^+ subset”.
In the case of “human IL-15: human recombinant interleukin-15”, the “expansion of CX3CR1+ Granzyme B+ CD8+ T cells among PBMC” value in data set [3] (graded concentrations of rh-IL-15, 24 hours, healthy human donors) was “significantly increased the expansion”. The “proliferation of CX3CR1+ CD8+ T cells (% Ki67+ cells)” value in data set [3] (human PBMC, human IL-15 10 ng/ml, 48 hours) is listed as “increased proliferation”.
For pembrolizumab: anti-PD-1 antibody, the “% Bim+ CD8+ T cells” value in data set [4] was “significantly decreased in responders compared to non-responders”. Besides, the “disease status (PET/CT) in one patient” value in data set [5] is “rapid progression of metastatic melanoma in the peritoneum and liver”.
